Measurements published in patent publication US9340535B2, “N-[5-(Aminosulfony1)-4-methyl-1,3-thiazol-2-yl]-N-methyl-2-[4-(2-pyridinyl)phenyl]acetamide mesylate monohydrate” (AiCuris GmbH & Co. KG, priority 2011, dated 2016).
Values after ≈ are worked out from the molar mass of the structure shown. Where two headings read alike, the source gives them in different places.

Key:
[1] = Stability to decomposition: storage at 90° C. for one week
[2] = Thermal analysis and polymorphic stability (DSC, TGA); assay type: physicochemical; settings: for DSC: Differential Scanning Calorimetry; for TGA: Thermogravimetric Analysis
Experimental: Polymorphism refers to the ability of a solid material to exist in more than one crystal structure or solid form.
Upon mild heating (about 50° C. to 60° C.), the water content is reduced which would make these salts and the free base form extremely difficult to handle and to process during production and formulation. In contrast the hydrate of the mono mesylate salt is thermally stable and polymorphic stable at much higher temperatures of considerably above 100° C. as judged by TGA.
Moreover, exactly one mol equivalent water is incorporated into the crystal structure wherein the hydrogen atoms of the water molecule form hydrogen bridges with oxygen atoms of two different mesylate molecules. This well-defined position in the crystal lattice (see FIG. 3) is verified by the fact that water is released from the crystal only at high temperature, starting at 160° C.

[3] = Crystallinity by X-ray diffraction, microscopy; assay type: physicochemical; settings: for Crystallinity: X-ray diffraction, microscopy
[4] = Water solubility, solubility screening; settings: for Water solubility: Solubility screening
[5] = Stability to dissociation: stirring for one week at room temperature
[6] = Exposure in repeated dose 13-week toxicity study (free base); settings: rat, in vivo, rats; for AUC(0-t): read-out: AUC(0-24)
Experimental: The exposure of rats to N-[5-(aminosulfonyl)-4-methyl-1,3-thiazol-2-yl]-N-methyl-2-[4-(2-pyridinyl)phenyl]acetamide in a repeated dose 13-week toxicity study performed with the free base N-[5-(aminosulfonyl)-4-methyl-1,3-thiazol-2-yl]-N-methyl-2-[4-(2-pyridinyl)phenyl]acetamide (free base) was compared to the exposures observed in a 26-week repeated dose toxicity study performed with the mesylate monohydrate. In both studies, the test items were administered as 0.5% (w/v) tylose suspensions, and the concentrations were adjusted to the equivalents of free base N-[5-(aminosulfonyl)-4-methyl-1,3-thiazol-2-yl]-N-methyl-2-[4-(2-pyridinyl)phenyl]acetamide.

[7] = female, 10 mg/kg/day, F, 10 mg/kg/day, day 1, 13-week toxicity study
[8] = female, 50 mg/kg/day, F, 50 mg/kg/day, day 1, 13-week toxicity study
[9] = female, 250 mg/kg/day, F, 250 mg/kg/day, day 1, 13-week toxicity study
[10] = male, 10 mg/kg/day, M, 10 mg/kg/day, day 1, 13-week toxicity study
[11] = male, 50 mg/kg/day, M, 50 mg/kg/day, day 1, 13-week toxicity study
[12] = male, 250 mg/kg/day, M, 250 mg/kg/day, day 1, 13-week toxicity study

Cc1nc(N(C)C(=O)Cc2ccc(-c3ccccn3)cc2)sc1S(N)(=O)=O.Cl [1xHCl]
Stability to decomposition [1]: ++
Thermal and polymorphic stability of hydrates (in words) [2]: low thermal and low polymorphic stability
Thermal stability of hydrate [2]: labile
DSC [2]: loss of water before melting
TGA [2]: 2.1%
Crystallinity of the hydrate during storage ([3]; during storage): decrease of crystallinity
Water solubility [4]: 39.4 mg/100 mL
Stability to dissociation [5]: ++

Cc1ccc(S(=O)(=O)O)cc1.Cc1nc(N(C)C(=O)Cc2ccc(-c3ccccn3)cc2)sc1S(N)(=O)=O [1xTsOH]
Stability to decomposition [1]: −
Thermal stability of hydrate [2]: labile
DSC [2]: loss of water before melting
TGA [2]: 5.9%
Thermal and polymorphic stability of hydrates (in words) ([2]; listed as monotosylate): low thermal stability
Thermal and polymorphic stability of hydrates (in words) ([2]; listed as tosylate): low thermal and low polymorphic stability
Crystallinity [3]: +
Water solubility [4]: 50 mg/100 mL
Stability to dissociation [5]: ++

Cc1nc(N(C)C(=O)Cc2ccc(-c3ccccn3)cc2)sc1S(N)(=O)=O [Free base, N-[5-(aminosulfonyl)-4-methyl-1,3-thiazol-2-yl]-N-methyl-2-[4-(2-pyridinyl)phenyl]acetamide]
Cmax [6, 7]: 15300 ng/mL
AUC(0-t) [6, 7]: 159 µg·h/mL
AUC(0-t) ([6]; female, 10 mg/kg/day, F, 10 mg/kg/day, week 13, 13-week toxicity study): 211 µg·h/mL
Cmax ([6]; female, 10 mg/kg/day, F, week 13, 13-week toxicity study): 25800 ng/mL
Cmax [6, 8]: 35300 ng/mL
AUC(0-t) [6, 8]: 409 µg·h/mL
AUC(0-t) ([6]; female, 50 mg/kg/day, F, 50 mg/kg/day, week 13, 13-week toxicity study): 455 µg·h/mL
Cmax ([6]; female, 50 mg/kg/day, F, week 13, 13-week toxicity study): 40500 ng/mL
Cmax [6, 9]: 68900 ng/mL
AUC(0-t) [6, 9]: 966 µg·h/mL
AUC(0-t) ([6]; female, 250 mg/kg/day, F, 250 mg/kg/day, week 13, 13-week toxicity study): 1170 µg·h/mL
Cmax ([6]; female, 250 mg/kg/day, F, week 13, 13-week toxicity study): 83000 ng/mL
Cmax [6, 10]: 13300 ng/mL
AUC(0-t) [6, 10]: 87.9 µg·h/mL
AUC(0-t) ([6]; male, 10 mg/kg/day, M, 10 mg/kg/day, week 13, 13-week toxicity study): 133 µg·h/mL
Cmax ([6]; male, 10 mg/kg/day, M, week 13, 13-week toxicity study): 15000 ng/mL
Cmax [6, 11]: 30600 ng/mL
AUC(0-t) [6, 11]: 248 µg·h/mL
AUC(0-t) ([6]; male, 50 mg/kg/day, M, 50 mg/kg/day, week 13, 13-week toxicity study): 332 µg·h/mL
Cmax ([6]; male, 50 mg/kg/day, M, week 13, 13-week toxicity study): 30000 ng/mL
Cmax [6, 12]: 53900 ng/mL
AUC(0-t) [6, 12]: 567 µg·h/mL
AUC(0-t) ([6]; male, 250 mg/kg/day, M, 250 mg/kg/day, week 13, 13-week toxicity study): 661 µg·h/mL
Cmax ([6]; male, 250 mg/kg/day, M, week 13, 13-week toxicity study): 62800 ng/mL
Stability to decomposition [1]: ++
Thermal and polymorphic stability of hydrates (in words) [2]: low thermal stability
Thermal stability of hydrate [2]: labile
DSC [2]: loss of water before melting
TGA [2]: 8.8%
Thermal and polymorphic stability of hydrates (in words) ([2]; listed as free base form): low thermal and low polymorphic stability
Crystallinity [3]: +
solubility ([4]; water): 2 µg/mL (≈ 4.97 µM)
